Patent publication US11214803B2, “Modulators of YAP1 expression” (Ionis Pharmaceuticals, Inc., priority 2019, dated 2022)
Strand notation (5' to 3'): a small letter for the sugar, then the base; units joined by * are phosphorothioate-linked, units joined directly phosphodiester-linked; [ ] holds rarer units or linkages, { } end groups; capitals alone tell only the bases. k = constrained ethyl (cEt); [5mC] = 5-methylcytosine; d = 2'-deoxy (DNA)

system: Yap1 mRNA; experiment: Antisense inhibition of human Yap1 in A-431 cells by cEt gapmers, single dose (Example 3, RTS36584); type: cell-based; settings: Table 8; A-431 cells, 5,000 cells per well, free uptake, 2,000 nM, approximately 48 hours; RTS36584; normalized to RIBOGREEN; Yap1 mRNA relative to untreated control cells
Procedure, shortened: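 Free uptake, 2,000 nM, ~48 h, A-431 cells. Gapmers: 16-mer 3-10-3 cEt wings, PS backbone, 5-MeC. Readout qRT-PCR, RiboGreen-normalized, % UTC.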

| Substance | YAP1 (% UTC) |
| --- | --- |
| 958400 (antisense kT*kT*kG*dA*d[5mC]*d[5mC]*dA*dA*d[5mC]*dT*dA*d[5mC]*dT*kT*kG*kA) [Compound 958400] | 26 |
| 958358 (antisense kG*kG*k[5mC]*dG*dG*d[5mC]*dT*dT*dG*dA*dA*dG*dA*kA*kG*kG) [Compound 958358] | 34 |

same assay, conditions: Table 9; A-431 cells, 5,000 cells per well, free uptake, 2,000 nM, approximately 48 hours; RTS36584; normalized to RIBOGREEN; Yap1 mRNA relative to untreated control cells

| Substance | YAP1 (% UTC) |
| --- | --- |
| 958761 (antisense kA*kG*kT*d[5mC]*dT*d[5mC]*dA*dA*d[5mC]*dA*dA*d[5mC]*d[5mC]*kT*kT*k[5mC]) [Compound 958761] | 7 |
| 958701 (antisense kT*kT*kA*dA*dA*d[5mC]*dT*dA*dG*dG*d[5mC]*dA*d[5mC]*kA*kT*kT) [Compound 958701] | 98 |
| 958586 (kG*kG*k[5mC]*dA*dG*d[5mC]*dA*d[5mC]*dG*dG*dT*dG*dT*kA*kA*kG; antisense) [Compound 958586] | 78 |

same assay, conditions: Table 10; A-431 cells, 5,000 cells per well, free uptake, 2,000 nM oligonucleotide, approx. 48 hours; primer probe set RTS36584; Yap1 mRNA normalized to RIBOGREEN, percent of untreated control

| Substance | YAP1 (% UTC) |
| --- | --- |
| 958707 (antisense kT*k[5mC]*kA*dA*dT*dG*d[5mC]*dT*dG*dT*dA*dT*d[5mC]*kA*kG*kA) [Compound 958707] | 23 |
| 958532 (kG*kA*kA*dG*dT*dA*dG*dG*dA*dG*d[5mC]*dA*dA*kG*kT*k[5mC]; antisense) [Compound 958532] | 2 |
| 958507 (kG*kA*kG*d[5mC]*dA*dG*dA*dT*dA*dA*dT*d[5mC]*dG*kA*kG*kA; antisense) [Compound 958507] | 6 |
| 958517 (kT*k[5mC]*kT*dA*dG*dA*dA*d[5mC]*dA*d[5mC]*dT*dA*dA*kA*k[5mC]*kT; antisense) [Compound 958517] | 88 |

same assay, conditions: Table 11; A-431 cells, 5,000 cells per well, free uptake, 2,000 nM oligonucleotide, approx. 48 hours; primer probe set RTS36584; Yap1 mRNA normalized to RIBOGREEN, percent of untreated control

| Substance | YAP1 (% UTC) |
| --- | --- |
| 958663 (k[5mC]*kT*kA*dT*dT*dA*dG*dG*dG*dA*d[5mC]*dT*dG*kA*kA*k[5mC]; antisense) [Compound 958663] | 32 |
| 958463 (antisense k[5mC]*k[5mC]*kT*dG*dA*dG*dA*d[5mC]*dA*dT*d[5mC]*d[5mC]*d[5mC]*kG*kG*kG) [Compound 958463] | 63 |
| 958538 (kA*kT*k[5mC]*d[5mC]*dA*dG*dG*dG*dT*d[5mC]*dA*dA*dT*kT*kT*kT; antisense) [Compound 958538] | 10 |
| 958783 (antisense kT*kG*kA*dT*d[5mC]*dT*dG*dA*dT*dG*d[5mC]*dT*dT*kG*k[5mC]*kT) [Compound 958783] | 35 |

same assay, conditions: Table 12; A-431 cells, 5,000 cells per well, free uptake, 2,000 nM modified oligonucleotide, approx. 48 hours; RTS36584; normalized to RIBOGREEN; Yap1 mRNA relative to untreated control cells

| Substance | YAP1 (% UTC) |
| --- | --- |
| 958734 (antisense kA*k[5mC]*kA*d[5mC]*dA*dT*dA*dG*dA*dG*d[5mC]*dT*dA*kA*kG*kG) [Compound 958734] | 7 |
| 958819 (kT*kG*k[5mC]*dT*dT*d[5mC]*dA*dA*d[5mC]*dA*dT*dT*dG*kT*kT*k[5mC]; antisense) [Compound 958819] | 9 |
| 958689 (antisense k[5mC]*kA*kT*dT*dA*dA*dG*dG*dA*dG*dG*dT*dT*kA*kT*kG) [Compound 958689] | 87 |
| 958444 (antisense kA*k[5mC]*kG*d[5mC]*d[5mC]*d[5mC]*d[5mC]*dG*dG*d[5mC]*dT*d[5mC]*d[5mC]*kA*k[5mC]*kG) [Compound 958444] | 97 |
| 958784 (antisense kG*kG*k[5mC]*dT*dG*dG*dA*dT*dA*dG*dA*dA*dT*kG*k[5mC]*kT) [Compound 958784] | 79 |

same assay, conditions: Table 13; A-431 cells, 5,000 cells per well, free uptake, 2,000 nM modified oligonucleotide, approx. 48 hours; RTS36584; normalized to RIBOGREEN; Yap1 mRNA relative to untreated control cells

| Substance | YAP1 (% UTC) |
| --- | --- |
| 958630 (antisense kG*k[5mC]*kG*dG*dT*dA*dA*d[5mC]*dT*d[5mC]*dT*dT*d[5mC]*kT*kT*kT) [Compound 958630] | 52 |
| 958605 (antisense k[5mC]*kT*k[5mC]*dA*dG*dA*dT*dG*dT*dA*d[5mC]*d[5mC]*dA*kA*k[5mC]*kG) [Compound 958605] | 7 |
| 958560 (kG*kG*kT*dG*d[5mC]*d[5mC]*dA*d[5mC]*dT*dT*dT*dA*dA*kT*kT*k[5mC]; antisense) [Compound 958560] | 22 |
| 958600 (kG*kT*kA*dG*dA*dT*d[5mC]*dT*dA*dA*dG*dA*dA*kG*k[5mC]*k[5mC]; antisense) [Compound 958600] | 8 |
| 958760 (antisense kA*kG*kT*dA*dA*dT*dA*dG*dA*dT*d[5mC]*dT*dA*k[5mC]*kA*kA) [Compound 958760] | 76 |

same assay, conditions: Table 26; Yap1 mRNA by 3-10-3 cEt gapmers targeting SEQ ID NO.: 1, and 2; percent of untreated control

| Substance | YAP1 (% UTC) |
| --- | --- |
| 1075116 (k[5mC]*kT*kT*dA*dA*d[5mC]*dA*dT*dT*dT*dA*dA*dT*kG*kG*k[5mC]; antisense) [compound 1075116] | 15 |
| 1074988 (antisense kA*k[5mC]*k[5mC]*dG*d[5mC]*dG*dG*d[5mC]*dG*dG*dA*dG*dT*kG*kG*kA) [compound 1074988] | 94 |
| 1075756 (kA*kT*kT*dT*dA*d[5mC]*d[5mC]*d[5mC]*dT*dG*d[5mC]*d[5mC]*dA*k[5mC]*kT*kT; antisense) [compound 1075756] | 49 |
| 1074188 (antisense kG*k[5mC]*kT*dG*d[5mC]*dG*dA*dA*dG*dG*d[5mC]*dG*dG*k[5mC]*kT*kG) [compound 1074188] | 113 |
| 1074540 (kA*k[5mC]*kT*dA*dT*d[5mC]*d[5mC]*dA*d[5mC]*dA*dG*dT*dA*kA*kT*kA; antisense) [compound 1074540] | 26 |
| 1076236 (kG*kG*kA*dG*dA*dA*d[5mC]*d[5mC]*dT*dT*dA*dT*dT*kT*kA*kT; antisense) [compound 1076236] | 51 |

same assay, conditions: Table 27; Yap1 mRNA by 3-10-3 cEt gapmers targeting SEQ ID NO.: 1, and 2; percent of untreated control

| Substance | YAP1 (% UTC) |
| --- | --- |
| 1075949 (antisense kT*kA*kG*dG*dA*dA*d[5mC]*dA*d[5mC]*d[5mC]*dA*dA*dG*kG*kT*kT) [compound 1075949] | 48 |
| 1074925 (antisense kG*k[5mC]*k[5mC]*dT*dG*d[5mC]*dA*dA*dA*dT*dA*dG*dG*kA*kG*kA) [compound 1074925] | 94 |
| 1075597 (antisense kA*kT*kT*dA*dA*d[5mC]*dA*dT*dT*dT*dG*d[5mC]*d[5mC]*k[5mC]*kG*k[5mC]) [compound 1075597] | 47 |

same assay, conditions: Table 28; Yap1 mRNA as percent of untreated control; 3-10-3 cEt gapmers targeting SEQ ID NO.: 1, and 2

| Substance | YAP1 (% UTC) |
| --- | --- |
| 1075726 (kA*kG*kT*dT*dA*dT*d[5mC]*d[5mC]*dT*dA*dT*d[5mC]*dT*kG*kT*k[5mC]; antisense) [compound 1075726] | 14 |
| 1074830 (kG*kA*kG*dG*dA*dT*dA*dA*dA*dA*dT*d[5mC]*d[5mC]*kA*k[5mC]*k[5mC]; antisense) [compound 1074830] | 89 |
| 1075630 (antisense kT*kA*kT*dA*dA*d[5mC]*d[5mC]*dA*dA*dA*dT*dG*d[5mC]*k[5mC]*kG*k[5mC]) [compound 1075630] | 60 |
| 1074670 (antisense kA*kA*kG*dT*dA*dG*d[5mC]*dT*dT*dT*dG*dA*dT*k[5mC]*kT*kT) [compound 1074670] | 49 |
| 1075438 (antisense k[5mC]*kA*kT*dA*dT*dT*dA*dG*dA*dG*dT*dT*dG*kA*kG*kG) [compound 1075438] | 22 |
| 1076206 (k[5mC]*kA*kA*dT*dA*dA*dA*d[5mC]*dT*dT*dA*d[5mC]*d[5mC]*k[5mC]*kT*kT; antisense) [compound 1076206] | 55 |
| 1074286 (antisense kT*kG*kA*dT*dT*d[5mC]*dT*d[5mC]*dT*dG*dG*dT*dT*k[5mC]*kA*kT) [compound 1074286] | 32 |

same assay, conditions: Table 29; Yap1 mRNA as percent of untreated control; 3-10-3 cEt gapmers targeting SEQ ID NO.: 1, and 2

| Substance | YAP1 (% UTC) |
| --- | --- |
| 1075247 (k[5mC]*kT*kA*dA*dG*dA*dT*dA*dA*d[5mC]*dT*dA*dG*kT*kA*kA; antisense) [compound 1075247] | 101 |

same assay, conditions: Table 34; Yap1 mRNA as percent of untreated control; 3-10-3 cEt gapmers targeting SEQ ID NO: 1 and 2; single dose

| Substance | YAP1 (% UTC) |
| --- | --- |
| 1075508 (kG*kA*kA*dA*dA*dA*dG*dG*dT*dT*dT*dA*dG*kG*kG*kT; antisense) [compound 1075508] | 84 |
| 1076564 (kT*kA*kA*dA*dG*dT*dA*dA*dT*dG*d[5mC]*dT*dA*k[5mC]*kA*kG; antisense) [compound 1076564] | 77 |
| 1075988 (kA*kA*kT*dT*dA*dA*dG*d[5mC]*dT*dT*d[5mC]*dT*d[5mC]*kT*kA*kG; antisense) [compound 1075988] | 90 |

same assay, conditions: Table 35; Yap1 mRNA as percent of untreated control; 3-10-3 cEt gapmers targeting SEQ ID NO: 1 and 2; single dose

| Substance | YAP1 (% UTC) |
| --- | --- |
| 1075861 (antisense kT*kA*kA*d[5mC]*dT*dA*dT*dA*dA*dG*d[5mC]*dT*dA*kT*kG*kT) [compound 1075861] | 78 |
| 1076341 (antisense kA*kT*kT*dA*dA*d[5mC]*dT*dA*d[5mC]*dA*dA*d[5mC]*dT*kG*kT*kG) [compound 1076341] | 18 |
| 1074805 (kG*kT*kA*dG*d[5mC]*dA*dA*dA*dG*dT*d[5mC]*dA*d[5mC]*kT*kT*k[5mC]; antisense) [compound 1074805] | 9 |
| 1076469 (kG*kT*kA*dA*dA*dA*dG*dG*dG*dA*dA*d[5mC]*dT*kA*kA*kG; antisense) [compound 1076469] | 69 |
